Source: US20180155336A1, “PROCESS FOR THE PREPARATION OF 2-{4-[2-({[2-(4-CHLOROPHENYL)-1,3-THIAZOL-4-YL]METHYL}SULFANYL)-3,5-DICYAN0-6-(PYRROLIDIN-1-YL)PYRIDIN-4-YL]PHENOXY}ETHYL-L-ALANYL-L-ALANINATE MONOHYDROCHLORIDE” (BAYER PHARMA AKTIENGESELLSCHAFT, priority 2015, published 2018)
Where a name gives a salt, the structure may show the parent alone.

Experiment: Storage stability of the crystalline form
Assay type: physicochemical
Excerpt: The compound of the formula (I) is generally micronized and formulated in pharmacy.

Q: What does the source list for C[C@H](N)C(=O)N[C@@H](C)C(=O)OCCOc1ccc(-c2c(C#N)c(SCc3csc(-c4ccc(Cl)cc4)n3)nc(N3CCCC3)c2C#N)cc1 [2-{4-[2-({[2-(4-chlorophenyl)-1,3-thiazol-4-yl]methyl}sulphanyl)-3,5-dicyano-6-(pyrrolidin-1-yl)pyridin-4-yl]phenoxy}ethyl-L-alanyl L-alaninate monohydrochloride]?
A: stability properties (even at high atmospheric humidity): very good stability properties; can be stored without any problem (storage time): > 2 years
